Reference: PMC7914897, “Cytotoxic Potential of a-Azepano- and 3-Amino-3,4-SeCo-Triterpenoids” (International Journal of Molecular Sciences, 2021)

How the values were obtained:
IGROV1 (Ovarian cancer) = assay: NCI-60 screen (SRB, 48 h); settings: Homo sapiens
SF-295 (CNS cancer) = assay: NCI-60 screen (SRB, 48 h); settings: Homo sapiens
[1] = system: NCI-H322M (NSC lung cancer); assay: NCI-60 screen (SRB, 48 h)
EKVX (NSC lung cancer) = assay: NCI-60 screen (SRB, 48 h); settings: Homo sapiens
COLO 205 (Colon cancer) = assay: NCI-60 screen (SRB, 48 h); settings: Homo sapiens
UO-31 (Renal cancer) = assay: NCI-60 screen (SRB, 48 h)
Breast cancer subpanel = assay: NCI-60 screen, subpanel; settings: Homo sapiens
HL-60(TB) (Leukemia) = assay: NCI-60 screen (SRB, 48 h); format: cell-based; settings: Homo sapiens
NSC lung cancer subpanel = assay: NCI-60 screen, subpanel; settings: Homo sapiens
SK-MEL-5 (Melanoma) = assay: NCI-60 screen (SRB, 48 h); settings: Homo sapiens
[2] = system: NCI-H460 (NSC lung cancer); assay: NCI-60 screen (SRB, 48 h); settings: Homo sapiens
CAKI-1 (Renal cancer) = assay: NCI-60 screen (SRB, 48 h)
SR (Leukemia) = assay: NCI-60 screen (SRB, 48 h); format: cell-based
PC-3 (Prostate cancer) = assay: NCI-60 screen (SRB, 48 h); settings: Homo sapiens
Colon Cancer subpanel = assay: NCI-60 screen, subpanel; settings: Homo sapiens
RXF 393 (Renal cancer) = assay: NCI-60 screen (SRB, 48 h); settings: Homo sapiens
BT-549 (Breast cancer) = assay: NCI-60 screen (SRB, 48 h); format: cell-based; settings: Homo sapiens
MOLT-4 (Leukemia) = assay: NCI-60 screen (SRB, 48 h); settings: Homo sapiens
MCF7 (Breast cancer) = assay: NCI-60 screen (SRB, 48 h); settings: Homo sapiens
[3] = system: MDA-MB-468 (Breast cancer); assay: cells; settings: Homo sapiens
OVCAR-3 (Ovarian cancer) = assay: cells; settings: Homo sapiens
KM12 (Colon cancer) = assay: NCI-60 screen (SRB, 48 h); settings: Homo sapiens
SNB-19 (CNS cancer) = assay: NCI-60 screen (SRB, 48 h); settings: Homo sapiens
Renal Cancer subpanel = assay: NCI-60 screen, subpanel; settings: Homo sapiens
Prostate cancer subpanel = assay: NCI-60 screen, subpanel; settings: Homo sapiens

CC1(C)NCCC[C@]2(C)[C@H]3C=CC4=C5C[C@@](C)(CO)CC[C@]5(C)CC[C@@]4(C)[C@]3(C)CC[C@@H]12 [Compound 6, azepano-glycyrrhetol-diene]
GI50 (IGROV1 (Ovarian cancer); IGROV-1): 4.08 µM
IC (TGI) (IGROV1 (Ovarian cancer); IGROV-1, 48 h, read-out: TGI): 14.8 µM
CC50 (IGROV1 (Ovarian cancer); IGROV-1, read-out: LC50): 46.6 µM
GI50 (SF-295 (CNS cancer); SF-295): 2 µM
IC (TGI) (SF-295 (CNS cancer); SF-295, 48 h, read-out: TGI): 4.04 µM
CC50 (SF-295 (CNS cancer); SF-295, read-out: LC50): 8.15 µM
Growth % of the Most Sensitive Cell Lines ([1]; 1 dose 10 µM): −99.73%
GI50 ([1]; Homo sapiens): 4.78 µM
IC (TGI) ([1]; Homo sapiens, 48 h, read-out: TGI): 16.9 µM
CC50 ([1]; Homo sapiens, read-out: LC50): 42.1 µM
GI50 (EKVX (NSC lung cancer)): 2.77 µM
IC (TGI) (EKVX (NSC lung cancer); 48 h, read-out: TGI): 8.27 µM
CC50 (EKVX (NSC lung cancer); read-out: LC50): 38.4 µM
GI50 (COLO 205 (Colon cancer); COLO 205): 3.63 µM
IC (TGI) (COLO 205 (Colon cancer); COLO 205, 48 h, read-out: TGI): 13.9 µM
CC50 (COLO 205 (Colon cancer); COLO 205, read-out: LC50): 43 µM
GI50 (UO-31 (Renal cancer); Homo sapiens, UO-31): 3.59 µM
IC (TGI) (UO-31 (Renal cancer); Homo sapiens, UO-31, 48 h, read-out: TGI): 15.7 µM
CC50 (UO-31 (Renal cancer); Homo sapiens, UO-31, read-out: LC50): 42.1 µM
Growth % of the Most Sensitive Cell Lines (UO-31 (Renal cancer); UO-31, 1 dose 10 µM): −98.13%
IC (TGI) (Breast cancer subpanel; 48 h, read-out: TGI MG_MID): 19.1 µM
GI50 (Breast cancer subpanel; read-out: GI50 MG_MID): 6.68 µM
CC50 (Breast cancer subpanel; read-out: LC50 MG_MID): 55.1 µM
GI50 (HL-60(TB) (Leukemia)): 2.63 µM
IC (TGI) (HL-60(TB) (Leukemia); 48 h): 7.02 µM
CC50 (HL-60(TB) (Leukemia); read-out: LC50 (the source's name)): 32.6 µM
IC (TGI) (NSC lung cancer subpanel; 48 h, read-out: TGI MG_MID): 11.2 µM
GI50 (NSC lung cancer subpanel; read-out: GI50 MG_MID): 3.17 µM
CC50 (NSC lung cancer subpanel; read-out: LC50 MG_MID): 39.1 µM
GI50 (SK-MEL-5 (Melanoma); SK-MEL-5): 2.14 µM
IC (TGI) (SK-MEL-5 (Melanoma); SK-MEL-5, 48 h, read-out: TGI): 4.94 µM
CC50 (SK-MEL-5 (Melanoma); SK-MEL-5, read-out: LC50): 14 µM
GI50 ([2]; NCI-H460): 4.17 µM
IC (TGI) ([2]; NCI-H460, 48 h, read-out: TGI): 15.2 µM
CC50 ([2]; NCI-H460, read-out: LC50): 46.2 µM
Growth % of the Most Sensitive Cell Lines (CAKI-1 (Renal cancer); CAKI-1, 1 dose 10 µM): −96.49%
GI50 (CAKI-1 (Renal cancer); Homo sapiens, CAKI-1): 3.7 µM
IC (TGI) (CAKI-1 (Renal cancer); Homo sapiens, CAKI-1, 48 h, read-out: TGI): 13.8 µM
CC50 (CAKI-1 (Renal cancer); Homo sapiens, CAKI-1, read-out: LC50): 39.3 µM
TGI (SR (Leukemia)): 7.17 µM
GI50 (SR (Leukemia); Homo sapiens): 2.42 µM
CC50 (SR (Leukemia); Homo sapiens, read-out: LC50 (the source's name)): > 100 µM
GI50 (PC-3 (Prostate cancer); PC-3): 3.05 µM
IC (TGI) (PC-3 (Prostate cancer); PC-3, 48 h, read-out: TGI): 12.3 µM
CC50 (PC-3 (Prostate cancer); PC-3, read-out: LC50): 38.7 µM
IC (TGI) (Colon Cancer subpanel; 48 h, read-out: TGI MG_MID): 16.7 µM
GI50 (Colon Cancer subpanel; read-out: GI50 MG_MID): 5.11 µM
CC50 (Colon Cancer subpanel; read-out: LC50 MG_MID): 48.2 µM
GI50 (RXF 393 (Renal cancer); RXF 393): 1.84 µM
IC (TGI) (RXF 393 (Renal cancer); RXF 393, 48 h, read-out: TGI): 4.15 µM
CC50 (RXF 393 (Renal cancer); RXF 393, read-out: LC50): 9.35 µM
GI50 (BT-549 (Breast cancer); BT-549): 3.46 µM
IC (TGI) (BT-549 (Breast cancer); BT-549, 48 h): 12.7 µM
CC50 (BT-549 (Breast cancer); BT-549, read-out: LC50 (the source's name)): 39 µM
GI50 (MOLT-4 (Leukemia); MOLT-4): 2.46 µM
IC (TGI) (MOLT-4 (Leukemia); MOLT-4, 48 h, read-out: TGI): 6.8 µM
CC50 (MOLT-4 (Leukemia); MOLT-4, read-out: LC50): 38.2 µM
GI50 (MCF7 (Breast cancer); MCF7): 3.14 µM
IC (TGI) (MCF7 (Breast cancer); MCF7, 48 h, read-out: TGI): 14.5 µM
CC50 (MCF7 (Breast cancer); MCF7, read-out: LC50): 46.7 µM
GI50 ([3]; MDA-MB-468): 10.4 µM
IC (TGI) ([3]; MDA-MB-468, 48 h, read-out: TGI): 24 µM
CC50 ([3]; MDA-MB-468, read-out: LC50): 55.1 µM
GI50 (OVCAR-3 (Ovarian cancer); OVCAR-3): 2.69 µM
IC (TGI) (OVCAR-3 (Ovarian cancer); OVCAR-3, 48 h, read-out: TGI): 7.06 µM
CC50 (OVCAR-3 (Ovarian cancer); OVCAR-3, read-out: LC50): 34.8 µM
GI50 (KM12 (Colon cancer); KM12): 6.09 µM
IC (TGI) (KM12 (Colon cancer); KM12, 48 h, read-out: TGI): 20.3 µM
CC50 (KM12 (Colon cancer); KM12, read-out: LC50): 55.1 µM
GI50 (SNB-19 (CNS cancer); SNB-19): 11.6 µM
IC (TGI) (SNB-19 (CNS cancer); SNB-19, 48 h, read-out: TGI): 25.3 µM
CC50 (SNB-19 (CNS cancer); SNB-19, read-out: LC50): 55.2 µM
IC (TGI) (Renal Cancer subpanel; 48 h, read-out: TGI MG_MID): 11.9 µM
GI50 (Renal Cancer subpanel; read-out: GI50 MG_MID): 4.01 µM
CC50 (Renal Cancer subpanel; read-out: LC50 MG_MID): 35.8 µM
IC (TGI) (Prostate cancer subpanel; 48 h, read-out: TGI MG_MID): 8.66 µM
GI50 (Prostate cancer subpanel; read-out: GI50 MG_MID): 2.65 µM
CC50 (Prostate cancer subpanel; read-out: LC50 MG_MID): 26.2 µM
